Tests used:
[1] = tested on: Rev-mediated RRE export (RRE: Rev: Crm1 interactions); assay: Nucleocytoplasmic export assay (CAT assay) based on plasmid pDM128 in HeLa cells; assay type: cell-based, HIV-1; details: HeLa cells co-transfected with pDM128 and pSV2-Rev
Protocol: Lastly, multitarget-binding and inhibitory capabilities of hetero-SPCHs were examined. To evaluate the inhibition of Rev-mediated RRE export, a nucleocytoplasmic export assay based on plasmid pDM128 expressing RRE (see FIG. 23) was performed.
Referring to FIG. 24, as shown in a chloramphenicol acetyltransferase (CAT) assay (lane 3), co-transfection of pDM128 with pSV2-Rev (Rev-expressing plasmid) in HeLa cells enables an effective nucleocytoplasmic export of RRE RNA. In contrast, negligible CAT activity was observed when the cells were co-transfected with pBluescript KS(+) (negative control plasmid) (lane 2).
In addition, to confirm whether nucleocytoplasmic export mediated by RRE: Rev: Crm1 interactions could be inhibited by peptide-CNT hybrids, the cells were treated with hetero-(A&N)-SPCHs.
HeLa cells were incubated under 5% CO2 at 37° C. in DMEM supplemented with 10% FBS and 1% pen/strep. 4×10^4 of the incubated cells were distributed into a 48-well plate, and then incubated under 5% CO2 at 37° C. overnight. Subsequently, the resulting cells were washed with DPBS, and then a plasmid (total 250 ng; pDM128, pBluescript II KS (+), pSV2-Rev) complexed with 0.7 μL of a jetPEI DNA transfection reagent was added to each well. […]
The samples were normalized with the concentrations of proteins measured by a BCA assay (BCA protein assay kit; Pierce, USA). […]

[2] = tested on: cyc-ARM peptide on SWCNT (homo-ARM-SPCH) (HIV-1 (Rev ARM, synthetic)); assay: competition; details: hybrid concentration for complete exchange of 6 uM Rev from 100 nM RRE by EMSA; stated about 10,000 times stronger RRE binding than Rev

Q: With `CCC(=C/[C@H](C)C/C=C/C(C)=C/[C@@H](C)C(=O)[C@@H](C)[C@H](O)[C@@H](C)C/C(C)=C/C(=O)O)/C=C/[C@@H]1OC(=O)C=C[C@@H]1C` [LMB, leptomycin B] as the molecule, how does the “concentration required to completely inhibit the RRE export” value [1] read?
A: Its value is 100 nM.

Q: Which binding [2] does the source give for “GGGCGAAUUGGAGCUCGCUAUGUUCCUUGGGUUCUUGGGAGCAGCAGGAAGCACUAUGGGCGCAGUGUCAUUGACGCUGACGGUACAGGCCAGACAAUUAUUGUCUGGUAUAGUGCAACAGCAGAACAAUUUGCUGAGGGCUAUUGAGGCGCAACAACAUCUGUUGCAACUCACAGUCUGGGGCAUCAAGCAGCUCCAGGCAAGAGUCCUGGCUGUGGAAAGAUACCUAAGGGAUCAACAGCUCCUAGGGAUG [full-length RRE RNA transcript (253 nt)]” here?
A: The binding was 600 pM.

From patent US10669313B2, “Multitarget-directed bio-inorganic hybrid structure” (INDUSTRY-ACADEMIC COOPERATION FOUNDATION, YONSEI UNIVERSITY, priority 2016, dated 2020)
